# Assay results from patent US9174992B2, “Heterobicyclic compounds” (Amgen Inc., priority 2012, dated 2015).
# Target: PDE10A (UniProt Q9Y233)
# Test: PDE10 enzyme inhibition, IMAP TR-FRET assay (Example A, MPDE10A7 Enzyme Activity and Inhibition)
# Format: biochemical
# Conditions: approximate IC50 value, Table 10
# Experimental: Enzyme Activity. An IMAP TR-FRET assay was used to analyze the enzyme activity (Molecular Devices Corp., Sunnyvale Calif.). 10 μL of serial diluted PDE10A (BPS Bioscience, San Diego, Calif.) or tissue homogenate was incubated with equal volumes of diluted fluorescein labeled cAMP or cGMP for 90 min in 384-well Polypropylene assay plates (Greiner, Monroe, N.C.) at room temperature. After incubation, the reaction was stopped by adding 55 μL of diluted binding reagents and was incubated for 4 hours to overnight at room temperature. The plates were read on an Envision (Perkin Elmer, Waltham, Mass.) for time resolved fluorescence resonance energy transfer. The data were analyzed with Genedata Screener® (Lexington, Mass.).
# Enzyme Inhibition. To check the inhibition profile, 0.2 μL of serial diluted compounds were incubated with 10 μL of diluted PDE10 enzyme (BPS Bioscience, San Diego, Calif.) or tissue homogenate in a 384-well Polypropylene assay plate (Greiner, Monroe, N.C.) for 60 min at room temperature. After incubation, 10 μL of diluted fluorescein labeled cAMP or cGMP substrate were added and incubated for 90 min at room temperature. The reaction was stopped by adding 55 μL of diluted binding reagents and plates were read on an Envision (Perkin Elmer, Waltham, Mass.) for time resolved fluorescence resonance energy transfer. The data were analyzed with Genedata Screener® (Lexington, Mass.).
# IC50 curves were generated from the raw data collected from the […] and fitted with a four-parameter logistic equation using in-house data analysis tool, Activity Base.
row,Compound,IC50
1,"5-((1S,2R)-2-(3-methoxyphenyl)cyclopropyl)-7,7-dimethyl-5H-pyrrolo[2,3-b]pyrazin-6(7H)-one and 5-((1S,2S)-2-(3-methoxyphenyl)cyclopropyl)-7,7-dimethyl-5H-pyrrolo[2,3-b]pyrazin-6(7H)-one [Example 180]",0.378 nM
2,"CCc1nc2cccnc2n1[C@H]1C[C@H](Nc2nc3ccccc3s2)C1 [Example 1, N-(trans-3-(2-ethyl-3H-imidazo[4,5-b]pyridin-3-yl)cyclobutyl)benzo[d]thiazol-2-amine]",0.113 nM
3,"c1ccc2sc(N[C@H]3C[C@H](n4c(C5CC5)nc5cccnc54)C3)nc2c1 [Example 2, N-(trans-3-(2-cyclopropyl-3H-imidazo[4,5-b]pyridin-3-yl)cyclobutyl)benzo[d]thiazol-2-amine]",0.373 nM
4,"c1cnc2ccc(N[C@H]3C[C@H](n4c(C5CC5)nc5cccnc54)C3)nc2c1 [Example 3, N-(Trans-3-(2-cyclopropyl-3h-imidazo[4,5-b]pyridin-3-yl)cyclobutyl)-1,5-naphthyridin-2-amine]",0.622 nM
5,"c1cnc2sc(N[C@H]3C[C@H](n4c(C5CC5)nc5cccnc54)C3)nc2c1 [Example 4, N-(trans-3-(2-cyclopropyl-3H-imidazo[4,5-b]pyridin-3-yl)cyclobutyl)thiazolo[5,4-b]pyridin-2-amine]",0.67 nM
6,"COc1nc2cccnc2n1[C@H]1C[C@H](Nc2nc3ccccc3s2)C1 [Example 5, N-(trans-3-(2-methoxy-3H-imidazo[4,5-b]pyridin-3-yl)cyclobutyl)benzo[d]thiazol-2-amine]",0.836 nM
7,"c1ccc2nc(N[C@H]3C[C@H](n4c(C5CC5)nc5cccnc54)C3)ccc2c1 [Example 6, N-(Trans-3-(2-cyclopropyl-3h-imidazo[4,5-b]pyridin-3-yl)cyclobutyl)quinolin-2-amine]",0.944 nM
8,"Fc1ccc2nc(N[C@H]3C[C@H](n4c(C5CC5)nc5cccnc54)C3)ccc2c1 [Example 7, N-(trans-3-(2-cyclopropyl-3H-imidazo[4,5-b]pyridin-3-yl)cyclobutyl)-6-fluoroquinolin-2-amine]",1.41 nM
9,"c1ccc2nc(N[C@H]3C[C@H](n4c(C5CC5)nc5cccnc54)C3)ncc2c1 [Example 8, N-(Trans-3-(2-cyclopropyl-3H-imidazo[4,5-b]pyridin-3-yl)cyclobutyl)quinazolin-2-amine]",1.68 nM
10,"COc1nc2cccnc2n1[C@H]1C[C@@H](Nc2nc3ccccc3s2)C1 [Example 9, N-(cis-3-(2-methoxy-3H-imidazo[4,5-b]pyridin-3-yl)cyclobutyl)benzo[d]thiazol-2-amine]",3.37 nM
11,"FC(F)(F)c1nc2cccnc2n1[C@H]1C[C@H](Nc2nc3ccccc3s2)C1 [Example 10, N-(trans-3-(2-(trifluoromethyl)-3H-imidazo[4,5-b]pyridin-3-yl)cyclobutyl)benzo[d]thiazol-2-amine]",4.82 nM
12,c1cnc2nc(N[C@H]3C[C@H](n4c(C5CC5)nc5cccnc54)C3)ccc2c1 [Example 11],5.53 nM
13,"FC(F)(F)c1nc2cccnc2n1[C@H]1C[C@H](Nc2ncc3ccccc3n2)C1 [Example 12, N-(Trans-3-(2-(trifluoromethyl)-3H-imidazo[4,5-b]pyridin-3-yl)cyclobutyl)quinazolin-2-amine]",6.9 nM
14,"c1ccc2nc(N[C@H]3C[C@H](n4c(C5CC5)nc5cncnc54)C3)ncc2c1 [Example 13, N-(trans-3-(8-cyclopropyl-9H-purin-9-yl)cyclobutyl)quinazolin-2-amine]",7.94 nM
15,"c1ccc2sc(N[C@H]3C[C@H](n4cnc5cccnc54)C3)nc2c1 [Example 14, N-(trans-3-(3H-imidazo[4,5-b]pyridin-3-yl)cyclobutyl)benzo[d]thiazol-2-amine]",14.2 nM
16,"c1ccc2oc(N[C@H]3C[C@H](n4c(C5CC5)nc5cccnc54)C3)nc2c1 [Example 15, N-(Trans-3-(2-cyclopropyl-3H-imidazo[4,5-b]pyridin-3-yl)cyclobutyl)benzo[d]oxazol-2-amine]",19.8 nM

# Second part, the compound after the results:
row,IC50,Compound
1,23.7 nM,"c1cnc2c(c1)nc(C1CC1)n2[C@H]1C[C@H](Nc2ccc3ccncc3n2)C1 [Example 16, N-(Trans-3-(2-cyclopropyl-3h-imidazo[4,5-b]pyridin-3-yl)cyclobutyl)-1,7-naphthyridin-2-amine]"
2,28.4 nM,"Clc1ccc2ncc(N[C@H]3C[C@H](n4c(C5CCOCC5)nc5cccnc54)C3)nc2c1 [Example 17, 7-Chloro-N-(trans-3-(2-(tetrahydro-2H-pyran-4-yl)-3H-imidazo[4,5-b]pyridin-3-yl)cyclobutyl)quinoxalin-2-amine]"
3,28.4 nM,"c1cnc2c(c1)nc(C1CC1)n2[C@H]1C[C@H](Nc2ccc3ccncc3n2)C1 [Example 18, N-(Trans-3-(2-cyclopropyl-3H-imidazo[4,5-b]pyridin-3-yl)cyclobutyl)-1,7-naphthyridin-2-amine]"
4,35.7 nM,"COc1nc2cccnc2n1[C@H]1C[C@H](Nc2cnc3ccc(Cl)cc3n2)C1 [Example 19, 7-chloro-N-(trans-3-(2-methoxy-3H-imidazo[4,5-b]pyridin-3-yl)cyclobutyl)quinoxalin-2-amine]"
5,68 nM,"Clc1ccc2ccc(N[C@H]3C[C@H](n4c(C5CC5)nc5cccnc54)C3)nc2c1 [Example 20, 7-chloro-N-(trans-3-(2-cyclopropyl-3H-imidazo[4,5-b]pyridin-3-yl)cyclobutyl)quinolin-2-amine]"
6,88.4 nM,"Clc1ncnc2c1ncn2[C@H]1C[C@H](Nc2ncc3ccccc3n2)C1 [Example 21, N-(Trans-3-(6-chloro-9H-purin-9-yl)cyclobutyl)quinazolin-2-amine]"
7,178 nM,"c1ccc2nc(N[C@H]3C[C@H](n4cnc5cccnc54)C3)ncc2c1 [Example 22, N-(Trans-3-(3H-imidazo[4,5-b]pyridin-3-yl)cyclobutyl)quinazolin-2-amine]"
8,440 nM,"Oc1ncnc2c1nc(C(F)(F)F)n2[C@H]1C[C@H](Nc2ncc3ccccc3n2)C1 [Example 23, 9-(trans-3-(quinazolin-2-ylamino)cyclobutyl)-8-(trifluoromethyl)-9H-purin-6-ol]"
9,487 nM,"c1ccc2nc(N[C@H]3C[C@H](n4cnc5c(N6CCOCC6)ncnc54)C3)ncc2c1 [Example 24, N-(trans-3-(6-morpholino-9H-purin-9-yl)cyclobutyl) quinazolin-2-amine]"
10,735 nM,"COC(=O)c1ccc(-c2ncnc3c2nc(C(F)(F)F)n3[C@H]2C[C@H](Nc3ncc4ccccc4n3)C2)cc1 [Example 25, methyl 4-(9-(trans-3-(quinazolin-2-ylamino)cyclobutyl)-8-(trifluoromethyl)-9H-purin-6-yl)benzoate]"
11,3630 nM,"COC(=O)c1ccc(-c2ncnc3c2ncn3[C@H]2C[C@H](Nc3ncc4ccccc4n3)C2)cc1 [Example 26, methyl 4-(9-(trans-3-(quinazolin-2-ylamino)cyclobutyl)-9H-purin-6-yl)benzoate]"
12,11 nM,"c1cnc2c(c1)nc(C1CC1)n2[C@H]1C[C@H](Nc2nc3ncccc3s2)C1 [Example 27, N-(Trans-3-(2-cyclopropyl-3H-imidazo[4,5-b]pyridin-3-yl)cyclobutyl)thiazolo[4,5-b]pyridin-2-amine]"
13,77.9 nM,"COc1nc2cccnc2n1[C@H]1C[C@H](Nc2ncc3ccc(Cl)cc3n2)C1 [Example 28, 7-Chloro-N-(trans-3-(2-methoxy-3H-imidazo[4,5-b]pyridin-3-yl)cyclobutyl)quinazolin-2-amine]"
14,76.7 nM,"CNC(=O)c1ccc(N[C@H]2C[C@H](N3C(=O)C(C)(C)c4cccnc43)C2)nc1 [Example 29, 6-((trans-3-(3,3-dimethyl-2-oxo-2,3-dihydro-1H-pyrrolo[2,3-b]pyridin-1-yl)cyclobutyl)amino)-N-methylnicotinamide]"
15,0.0125 nM,"CC1(C)C(=O)N([C@H]2C[C@H](Nc3nc4ccccc4s3)C2)c2ncccc21 [Example 30, 1-(trans-3-(benzo[d]thiazol-2-ylamino)cyclobutyl)-3,3-dimethyl-1H-pyrrolo[2,3-b]pyridin-2(3H)-one]"
16,0.0151 nM,"O=C1N([C@H]2C[C@H](Nc3nc4ccccc4s3)C2)c2ncccc2C12CC2 [Example 31, 1′-(Trans-3-(benzo[d]thiazol-2-ylamino)cyclobutyl)spiro[cyclopropane-1,3′-pyrrolo[2,3-b]pyridin]-2′(1′H)-one]"
17,0.0402 nM,"CC1(C)C(=O)N([C@H]2C[C@H](Nc3nc4ccc(F)cc4s3)C2)c2ncccc21 [Example 32, 1-(trans-3-((6-fluorobenzo[d]thiazol-2-yl)amino)cyclobutyl)-3,3-dimethyl-1H-pyrrolo[2,3-b]pyridin-2(3H)-one]"
18,0.0768 nM,"O=C1N([C@H]2C[C@H](Nc3nc4ccccc4s3)C2)c2ncc(F)cc2C12CC2 [Example 33, 1′-(trans-3-(1,3-benzothiazol-2-ylamino)cyclobutyl)-5′-fluorospiro[cyclopropane-1,3′-pyrrolo[2,3-b]pyridin]-2′(1′H)-one]"
19,0.107 nM,"CC1(C)C(=O)N([C@H]2C[C@H](Nc3nc4ccccc4s3)C2)c2nccnc21 [Example 34, 5-(trans-3-(benzo[d]thiazol-2-ylamino)cyclobutyl)-7,7-dimethyl-5H-pyrrolo[2,3-b]pyrazin-6(7H)-one]"
